In patent US6713265B1 (Synaptic Pharmaceutical Corporation, priority 1999, dated 2004):
Where “and” joins values, the source holds several entries; their conditions need not be identical. Identical values can stand only once. Counter-ions that a name gives are not always drawn.

Assays:
[1] = system: NPY-induced feeding behavior; test: NPY-induced food intake in satiated rats; type: in vivo, rat; settings: for Food intake, NPY + compound: compound 10 mg/kg i.p. then 300 pmole NPY i.c.v., 4 hours
Description: For these determinations food intake may be measured in normal satiated rats after intracerebroventricular application (i.c.v.) of NPY in the presence or absence of the test compound. Male Sprague Dawley rats (Ciba-Geigy AG, Sisseln, Switzerland) weighing between 180 g and 220 g are used for all experiments. The rats are individually housed in stainless steel cages and maintained on an 11:13 h light-dark cycle (lights off at 18:00 h) at a controlled temperature of 21-23° C. at all times. Water and food (NAFAG lab chow pellets NAFAG, Gossau, Switzerland) are available ad libidum.
Rats under pentobarbital anesthesia are stereotaxically implanted with a stainless steel guide cannula targeted at the right lateral ventricle. Stereotaxic coordinates, with the incisor bar set −2.0 mm below interaural line, are: −0.8 mm anterior and +1.3 mm lateral to bregma. The guide cannula is placed on the dura. Injection cannulas extend the guide cannulas −3.8 mm ventrally to the skull surface. Animals are allowed at least 4 days of recovery postoperatively before being used in the experiments. Cannula placement is checked postoperatively by testing all rats for their drinking response to a 50. ng intracerebroventricular (i.c.v.) injection of angiotensin II. Only rats which drink at least 2.5 ml of water within 30 min. after angiotensin II injection are used in the feeding studies.
All injections are made in the morning 2 hours after light onset. Peptides are injected in artificial cerebrospinal fluid (ACSF) in a volume of 5 μl. ACSF contains: NaCl 124 mM, KCl 3.75 mM, CaCl2 2.5 mM, MgSO4 2.0 mM, KH2PO4 0.22 mM, NaHCO3 26 mM and glucose 10 mM. Porcine-NPY (p-NPY) are dissolved in artificial cerebrospinal fluid (ACS). For i.c.v. injection the test compounds are preferably dissolved in DMSO/water (10%, v/v). The vehicle used for intraperitoneal (i.p.), subcutaneous (s.c.) or oral (p.o.) delivery of compounds is preferably water, physiological saline or DMSO/water (10% v/v), or cremophor/water (20% v/v), respectively.
Animals which are treated with both test compounds and porcine-NPY are treated first with the test compound.
Food intake may be measured by placing preweighed pellets into the cages at the time of NPY injection. Pellets are then removed from the cage subsequently at each selected time point and replaced with a new set of preweighed pellets. The food intake of animals treated with test compound may be calculated as a percentage of the food intake of control animals i.e., animals treated with vehicle. Alternatively, food intake for each group of animals subjected to a particular experimental condition may be expressed as the mean±S.E.M. Statistical analysis is performed by analysis of variance using the Student-Newman-Keuls test.
Food intake is reported as the mean±S.E.M. intake for a group of animals.

food intake = test: Food intake in food-deprived rats; type: in vivo, rat; settings: 30 mg/kg i.p., after 24h food deprivation
Description: After receipt, the animals are individually housed for the duration of the study and allowed free access to normal food together with tap water. The animals are maintained in a room with a 12 h light/dark cycle (8:00 a.m. to 8:00 p.m. light) at 24° C. and monitored humidity. After placement into individual cages the rats undergo a 4 day equilibration period, during which they are habituated to their new environment and to eating a powdered or pellet diet NAFAG, Gossau, Switzerland).
At the end of the equilibration period, food is removed from the animals for 24 hours starting at 8:00 a.m. At the end of the fasting period compound or vehicle may be administered to the animals orally or by injection intraperitoneally or intravenously. After 10-60 min. food is returned to the animals and their food intake is monitored at various time periods during the following 24 hour period. The food intake of animals treated with test compound may be calculated as a percentage of the food intake of control animals (i.e., animals treated with vehicle). Alternatively, food intake for each group of animals subjected to a particular experimental condition may be expressed as the mean±S.E.M.
Measurements were performed two hours after administration of the test compound.

α2c = target: T1, α2c (Homo sapiens, UniProt P18825); test: Binding at cloned human α2c adrenergic receptor
T1 sequence (P18825 1-462): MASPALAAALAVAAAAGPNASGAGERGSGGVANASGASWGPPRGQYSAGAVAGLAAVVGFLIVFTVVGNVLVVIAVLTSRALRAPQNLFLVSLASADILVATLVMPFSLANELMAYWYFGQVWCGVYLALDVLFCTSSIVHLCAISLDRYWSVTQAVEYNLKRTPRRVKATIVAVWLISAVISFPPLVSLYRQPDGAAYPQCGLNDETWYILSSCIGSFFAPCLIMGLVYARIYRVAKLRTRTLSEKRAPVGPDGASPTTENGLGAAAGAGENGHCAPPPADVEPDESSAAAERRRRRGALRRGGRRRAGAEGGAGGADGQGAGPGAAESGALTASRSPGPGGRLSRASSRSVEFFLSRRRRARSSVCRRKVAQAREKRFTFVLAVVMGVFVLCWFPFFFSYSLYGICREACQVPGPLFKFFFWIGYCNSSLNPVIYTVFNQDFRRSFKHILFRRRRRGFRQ

human Y4 receptor = target: T2, human Y4 receptor (Homo sapiens, UniProt P50391); test: ^125I-PYY binding to membranes, cloned human Y4 receptor; settings: read-out: Binding Affinity Ki vs. ^125I-PYY, Human Receptor Y4; Table 14; stably transfected LM(tk-) cells
T2 construct: expressed in transfected cells; host or cells: COS-7 (transient)

human Y1 receptor = target: T3, human Y1 receptor (Homo sapiens, UniProt P25929); test: ^125I-PYY binding to membranes, cloned human Y1 receptor; settings: read-out: Binding Affinity Ki vs. ^125I-PYY, Human Receptor Y1; Table 14; stably transfected 293 cells (compound 1 also COS-7)
T3 construct: expressed in transfected cells; host or cells: COS-7 (transient)
T3 sequence (P25929 1-384): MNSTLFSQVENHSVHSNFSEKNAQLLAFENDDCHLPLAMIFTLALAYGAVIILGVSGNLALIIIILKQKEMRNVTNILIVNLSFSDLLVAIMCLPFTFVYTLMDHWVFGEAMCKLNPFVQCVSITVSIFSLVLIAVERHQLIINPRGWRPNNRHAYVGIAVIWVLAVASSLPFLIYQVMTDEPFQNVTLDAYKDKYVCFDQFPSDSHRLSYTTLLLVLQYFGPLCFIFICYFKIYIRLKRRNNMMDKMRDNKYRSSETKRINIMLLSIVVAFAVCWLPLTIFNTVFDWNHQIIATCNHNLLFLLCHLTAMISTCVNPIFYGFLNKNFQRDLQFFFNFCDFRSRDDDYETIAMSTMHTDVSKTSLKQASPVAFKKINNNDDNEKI

human Y2 receptor = target: T4, human Y2 receptor (Homo sapiens, UniProt P49146); test: ^125I-PYY binding to membranes, cloned human Y2 receptor; settings: read-out: Binding Affinity Ki vs. ^125I-PYY, Human Receptor Y2; Table 14; stably transfected 293 cells (compound 1 also COS-7)
T4 construct: expressed in transfected cells; host or cells: COS-7 (transient)
T4 sequence (P49146 1-381): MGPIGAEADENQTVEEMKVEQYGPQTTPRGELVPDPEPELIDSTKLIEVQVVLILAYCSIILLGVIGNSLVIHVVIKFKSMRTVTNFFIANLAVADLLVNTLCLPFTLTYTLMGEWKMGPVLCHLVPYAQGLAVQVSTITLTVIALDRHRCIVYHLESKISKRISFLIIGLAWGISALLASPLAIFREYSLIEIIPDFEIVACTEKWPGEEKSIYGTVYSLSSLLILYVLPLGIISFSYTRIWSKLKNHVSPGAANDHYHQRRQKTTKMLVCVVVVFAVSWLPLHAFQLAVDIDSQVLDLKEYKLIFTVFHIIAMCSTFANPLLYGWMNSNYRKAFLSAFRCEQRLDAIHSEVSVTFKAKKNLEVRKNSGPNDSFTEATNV

human Y5 receptor [2] = target: T5, human Y5 receptor (Homo sapiens, UniProt Q15761); test: Radioligand binding to membranes of cells expressing cloned human Y5 receptor; set-up: Ki Values, Human Y5; apparent Kd; pKd; The isolated clone (CG-19) turned out to contain a full length cDNA; The longest open reading frame encodes a 455 amino acid protein; settings: read-out: Binding Affinity Ki vs. ^125I-PYY, Human Receptor Y5; Table 14; stably transfected LM(tk-) cells
T5 sequence (Q15761 1-445): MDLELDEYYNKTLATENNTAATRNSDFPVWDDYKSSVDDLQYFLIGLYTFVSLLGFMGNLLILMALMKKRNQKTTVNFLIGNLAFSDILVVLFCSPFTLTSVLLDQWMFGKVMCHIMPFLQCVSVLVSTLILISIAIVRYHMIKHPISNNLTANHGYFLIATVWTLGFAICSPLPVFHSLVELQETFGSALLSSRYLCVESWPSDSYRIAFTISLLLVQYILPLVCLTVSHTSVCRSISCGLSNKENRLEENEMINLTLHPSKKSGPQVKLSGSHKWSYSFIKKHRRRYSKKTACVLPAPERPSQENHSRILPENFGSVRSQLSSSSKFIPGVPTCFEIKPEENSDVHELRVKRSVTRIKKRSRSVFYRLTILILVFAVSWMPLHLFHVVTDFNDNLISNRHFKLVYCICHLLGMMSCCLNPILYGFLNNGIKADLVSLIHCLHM

human Y5 receptor [3] = target: T5, human Y5 receptor; test: Radioimmunoassay of cAMP, cells stably expressing human Y5 receptor; type: cell-based; set-up: Ki Values, Human Y5; apparent Kd; pKd; The isolated clone (CG-19) turned out to contain a full length cDNA; The longest open reading frame encodes a 455 amino acid protein; settings: block of NPY-induced inhibition of cAMP accumulation, forskolin-stimulated LM(tk-) cells, human Y5
Description: LM(tk-) cells stably transfected with the human Y5 receptor were routinely converted from an adherent monolayer to a viable suspension. […] The cell suspension was maintained in a shaking incubator at 37° C., 5% CO2 for 24 hours. […] Alternatively, cells may be returned to adherent cell culture in complete DMEM by distribution into 96-well microtiter plates coated with poly-D-lysine (0.01 mg/ml) followed by incubation at 37° C., 5% CO2 for 24 hours.
The maximum inhibition of cAMP accumulation (Emax) and the concentration producing a half-maximal effect (EC50) were determined by nonlinear regression analysis according to a 4 parameter logistic equation.
The ability of the compounds to antagonize the Y-type receptors is reported as the Kb. […] The results shown are representative of at least three independent experiments.

T2 sequence (P50391 whole entry): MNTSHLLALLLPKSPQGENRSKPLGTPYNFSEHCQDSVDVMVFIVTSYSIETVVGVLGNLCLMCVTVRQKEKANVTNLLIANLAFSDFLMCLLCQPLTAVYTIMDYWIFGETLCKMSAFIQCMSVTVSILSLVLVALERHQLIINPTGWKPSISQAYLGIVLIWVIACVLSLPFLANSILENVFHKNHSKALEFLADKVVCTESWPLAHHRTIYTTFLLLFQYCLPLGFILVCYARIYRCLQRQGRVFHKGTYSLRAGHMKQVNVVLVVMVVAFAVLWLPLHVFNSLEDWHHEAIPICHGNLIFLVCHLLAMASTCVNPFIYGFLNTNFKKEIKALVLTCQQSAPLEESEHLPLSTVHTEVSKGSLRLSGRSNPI

c1ccc(Nc2nc(Nc3ccccc3)c3ccccc3n2)cc1 [Compound 1, 2,4-Diphenylamino-guinazoline hydrochloride]
Food intake, NPY + compound ([1]; mean ± S.E.M.): 4.6 ± 0.6 g

Nc1nc(NCCCCCCNS(=O)(=O)c2cccc3ccccc23)nc2ccccc12 [Compound 2, Naphthalene-1-sulfonic acid [6-(4-amino-quinazolin-2-ylamino)-hexyl]-amide]
Two-hour food intake of food-deprived rats, percentage of intake compared to control rats, Mean (food intake): 42%

Cl.Nc1nc(NC[C@H]2CC[C@H](CNS(=O)(=O)c3cccc4ccccc34)CC2)nc2ccccc12 [Compound 5, trans-Naphthalene-1-sulfonic acid {4-[(4-amino-quinazolin-2-ylamino)-methyl]-cyclohexylmethyl}-amide hydrochloride]
Food intake, NPY + compound ([1]; mean ± S.E.M.): 4.1 ± 0.4 g

Cl.Cl.c1ccc(Nc2nc(Nc3ccc(N4CCCCC4)cc3)nc3ccccc23)cc1 [Compound 6, 2-[4-(Piperidin-1-yl)-phenylamino]-4-Phenylamino-quinazoline dihydrochloride]
Two-hour food intake of food-deprived rats, percentage of intake compared to control rats, Mean (food intake): 38% | Ki (α2c): 0.447 µM

CC(=O)O[C@H]1CC[C@H](Nc2nc(Nc3ccccc3)c3ccccc3n2)CC1.Cl [Compound 7, trans-2-(4-Acetoxy-cyclohexylamino)-4-Phenylamino-quinazoline hydrochloride]
Two-hour food intake of food-deprived rats, percentage of intake compared to control rats, Mean (food intake): 47%

COc1ccc(Nc2nc(Nc3ccccc3)c3cccc(OC)c3n2)cc1.Cl [Compound 9, 8-Methoxy-2-(4-methoxy-phenylamino)-4-phenylamino-quinazoline hydrochloride]
Two-hour food intake of food-deprived rats, percentage of intake compared to control rats, Mean (food intake): 40%

CNS(=O)(=O)Cc1ccc(Nc2nc(Nc3ccccc3)c3cc(OC)ccc3n2)cc1 [Compound 10, N-Methyl-[4-(6-methoxy-4-phenylamino-quinazolin-2-ylamino)-phenyl1-methanesulfonamide hydrochloride]
Two-hour food intake of food-deprived rats, percentage of intake compared to control rats, Mean (food intake): 74%

CNS(=O)(=O)Cc1ccc(Nc2nc(Nc3ccccc3)c3ccccc3n2)cc1.Cl [Compound 11, N-Methyl-[4-(4-Phenylamino-quinazolin-2-ylamino)-phenyl]-methanesulfonamide hydrochloride]
Two-hour food intake of food-deprived rats, percentage of intake compared to control rats, Mean (food intake): 15%

Cl.O=S(=O)(NC[C@H]1CC[C@H](CNCc2ccc3ccccc3c2)CC1)c1ccccc1C(F)(F)F [Compound 21]
Ki (human Y4 receptor): 18.5 µM | Ki (human Y1 receptor): 13 µM | Ki (human Y2 receptor): 1.61 µM | Two-hour food intake of food-deprived rats, percentage of intake compared to control rats, Mean (food intake): 80% | Ki (human Y5 receptor [2]): 0.0098 µM

Cl.O=S(=O)(NC[C@H]1CC[C@H](CNCc2cccc3ccccc23)CC1)c1ccccc1C(F)(F)F [Compound 23]
Ki (human Y4 receptor): 21.5 µM | Ki (human Y1 receptor): 14.5 µM | Ki (human Y2 receptor): 0.617 µM | Two-hour food intake of food-deprived rats, percentage of intake compared to control rats, Mean (food intake): 58% | Ki (human Y5 receptor [2]): 0.026 µM | Kb (human Y5 receptor [3]): 0.038 µM

Cl.Cl.O=[N+]([O-])c1ccccc1S(=O)(=O)NC[C@H]1CC[C@H](CNCc2ccc3ccccc3n2)CC1 [Compound 26]
Ki (human Y4 receptor): 19.3 µM | Ki (human Y1 receptor): 23.7 µM | Ki (human Y2 receptor): 58.2 µM | Two-hour food intake of food-deprived rats, percentage of intake compared to control rats, Mean (food intake): 73%

NPY: peptide neurotransmitter neuropeptide Y, 36 amino acids; feeding studies used 300 pmole of porcine NPY i.c.v.
Food intake, NPY ([1]; 300 pmole NPY i.c.v. alone, cumulative intake 4 hours after NPY, mean ± S.E.M.): 7.4 ± 0.5 g and 6.8 ± 1.0 g and 5.8 ± 0.5 g and 4.9 ± 0.4 g | food intake of NPY-stimulated animals compared to vehicles ([1]; 300 pmole i.c.v., p<0.05 Student-Newman-Keuls): significantly induce food intake
